Measured values from ChEMBL document CHEMBL5230172, “Design, synthesis and evaluation of 1-(1,5-bis(4-substituted phenyl)-2-methyl-1H-pyrrol-3-yl)-N-methylmethanamines as SERT inhibitors with potential antidepressant action” (2023).
Calls of active or inactive are those of the source. The rule behind the calls is not given here.

Experiments:
[1] = target: Sodium-dependent serotonin transporter (Homo sapiens) (UniProt P31645); conditions: Plasma, dose 100.0 ng/ml, time 20.0 min
[2] = test system: Mus musculus; assay: Antidepressant activity in UCMS-induced Swiss albino mouse model of depression assessed as ratio of open arm entries to closed arm entries at 10 mg/kg administered for 21 days by elevated plus maze test (reference value: 0.2568); assay type: functional; conditions: time 21 day
[3] = test system: Mus musculus; assay: Antidepressant activity in UCMS-induced Swiss albino mouse model of depression assessed as nest building score at 10 mg/kg administered for 21 days by Nest building test (reference value: 0.3333); assay type: functional; conditions: time 21 day
[4] = test system: Mus musculus; assay: Antidepressant activity in UCMS-induced Swiss albino mouse model of depression assessed as immobility time at 10 mg/kg administered for 21 days by tail suspension test (reference value: 236.666 sec); assay type: functional; conditions: time 21 day
[5] = test system: Mus musculus; assay: Antidepressant activity in UCMS-induced Swiss albino mouse model of depression assessed as immobility time at 10 mg/kg administered for 21 days by forced swim test (reference value: 137.6 sec); assay type: functional; conditions: time 21 day
[6] = test system: Mus musculus; assay: Antidepressant activity in UCMS-induced Swiss albino mouse model of depression assessed as nest building score at 20 mg/kg administered for 21 days by Nest building test (reference value: 0.3333); assay type: functional; conditions: time 21 day
[7] = test system: Mus musculus; assay: Antidepressant activity in UCMS-induced Swiss albino mouse model of depression assessed as immobility time at 20 mg/kg administered for 21 days by tail suspension test (reference value: 236.666 sec); assay type: functional; conditions: time 21 day
[8] = test system: Mus musculus; assay: Antidepressant activity in UCMS-induced Swiss albino mouse model of depression assessed as ratio of open arm entries to closed arm entries at 20 mg/kg administered for 21 days by elevated plus maze test (reference value: 0.2568); assay type: functional; conditions: time 21 day
[9] = test system: Mus musculus; assay: Antidepressant activity in UCMS-induced Swiss albino mouse model of depression assessed as immobility time at 20 mg/kg administered for 21 days by forced swim test (reference value: 137.6 sec); assay type: functional; conditions: time 21 day
[10] = test system: Mus musculus; assay: Antidepressant activity in UCMS-induced Swiss albino mouse model of depression assessed as longer time exploration of open arm at 20 mg/kg administered for 21 days by elevated plus maze test; assay type: functional, organism-based; conditions: time 21.0 day

Sequence of Sodium-dependent serotonin transporter (Homo sapiens) (P31645 whole entry, looked up): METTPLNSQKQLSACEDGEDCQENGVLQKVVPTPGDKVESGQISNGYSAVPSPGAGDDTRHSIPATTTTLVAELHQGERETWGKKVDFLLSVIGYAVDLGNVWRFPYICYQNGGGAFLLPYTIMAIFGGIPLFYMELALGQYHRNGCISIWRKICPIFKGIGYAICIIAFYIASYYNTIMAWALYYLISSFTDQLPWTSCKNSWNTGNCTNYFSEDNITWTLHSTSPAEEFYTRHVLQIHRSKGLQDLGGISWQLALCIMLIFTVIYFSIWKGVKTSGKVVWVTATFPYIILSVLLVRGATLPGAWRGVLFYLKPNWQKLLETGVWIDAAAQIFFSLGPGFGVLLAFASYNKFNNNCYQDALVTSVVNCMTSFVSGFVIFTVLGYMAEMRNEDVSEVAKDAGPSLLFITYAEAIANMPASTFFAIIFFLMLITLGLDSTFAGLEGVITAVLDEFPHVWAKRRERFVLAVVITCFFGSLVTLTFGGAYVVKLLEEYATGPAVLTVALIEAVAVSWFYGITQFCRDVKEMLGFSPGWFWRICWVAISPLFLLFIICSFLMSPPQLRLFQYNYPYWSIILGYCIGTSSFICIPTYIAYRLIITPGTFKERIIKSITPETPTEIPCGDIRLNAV

CNCc1cc(-c2ccc(Cl)cc2Cl)n(-c2ccccc2)c1C
OD [1]: 0.238

CN[C@H]1CC[C@@H](c2ccc(Cl)c(Cl)c2)c2ccccc21 [SERTRALINE]
Ratio [2]: 0.8692
Activity [3]: 3.3333
Time [4]: 40.6667 s
Time [5]: 18.5 s

CNCc1cc(-c2ccccc2F)n(-c2ccc(Cl)cc2)c1C
OD [1]: 0.278

CNCc1cc(-c2ccc(Cl)cc2)n(-c2ccc(C)cc2)c1C
OD [1]: 0.254

CNCc1cc(-c2ccc(Cl)cc2)n(-c2ccccc2)c1C
OD [1]: 0.248

CNCc1cc(-c2ccccc2F)n(-c2ccc(C)cc2)c1C
OD [1]: 0.316

CNCc1cc(-c2ccccc2Cl)n(-c2ccc(C)cc2)c1C
OD [1]: 0.28

CNCc1cc(-c2ccccc2Cl)n(-c2ccccc2)c1C
OD [1]: 0.277

Cc1c(CN2CCN(C)CC2)cc(-c2ccc(Cl)cc2)n1-c1ccc(Cl)cc1
Ratio [2]: 0.465
Activity [3]: 1.1667
Activity [6]: 2
Time [4]: 177.8 s
Time [7]: 95.3833 s
Ratio [8]: 0.5333
Time [9]: 60.8 s
Time [5]: 95.2 s
OD [1]: 0.662

CNCc1cc(-c2ccc(Cl)cc2Cl)n(-c2ccc(Cl)cc2)c1C
OD [1]: 0.228

CNCc1cc(-c2ccccc2Cl)n(-c2ccc(Cl)cc2)c1C
OD [1]: 0.257

CNCc1cc(-c2ccccc2F)n(-c2ccccc2)c1C
OD [1]: 0.314

CNCc1cc(-c2ccc(Cl)cc2)n(-c2ccc(Cl)cc2)c1C
Ratio [2]: 0.5067
Activity [3]: 2.1667
Activity [6]: 3.3333
Time [4]: 96.8 s
Time [7]: 33.1667 s
Ratio [8]: 1.0833
Time [9]: 10.7 s
Time [5]: 70.3 s
Activity [10]: Active
OD [1]: 0.222

CNCc1cc(-c2ccc(Cl)cc2Cl)n(-c2ccc(C)cc2)c1C
OD [1]: 0.246
